From patent US10072017B2, “Compounds and methods for the treatment of cystic fibrosis” (Flatley Discovery Lab, LLC, priority 2015, dated 2018)

Biological target: T1, CFTR (Homo sapiens, UniProt P13569, DEL508-508)
T1 construct: Primary CF airway epithelial cells were obtained from the UNC Cystic Fibrosis Tissue Procurement and Cell Culture Core; host or cells: primary CF airway epithelial cells
Experiment: Equivalent current assay in Primary CF airway epithelial cells (NAUC)
Type: cell-based
Conditions: 24 h, normalized to VX809 (3 μM) positive control; for Nauc @ 3 μM: 3 μM test compound; for Nauc @ 10 μM: 10 μM test compound
Procedure, shortened: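 NAUC is the area under the curve from forskolin (10 μM) plus VX770 (1 μM) addition to CFTR-172 (20 μM) block, after benzamil (5 μM). It is corrected for vehicle and scaled to 3 μM VX809 as 1.0 and DMSO as 0.0. Cells were exposed for 24 h to compounds with VX809; medians of ≥4 replicates were fitted sigmoidally.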

T1 sequence (P13569 with tags, fused parts or gaps DEL508-508): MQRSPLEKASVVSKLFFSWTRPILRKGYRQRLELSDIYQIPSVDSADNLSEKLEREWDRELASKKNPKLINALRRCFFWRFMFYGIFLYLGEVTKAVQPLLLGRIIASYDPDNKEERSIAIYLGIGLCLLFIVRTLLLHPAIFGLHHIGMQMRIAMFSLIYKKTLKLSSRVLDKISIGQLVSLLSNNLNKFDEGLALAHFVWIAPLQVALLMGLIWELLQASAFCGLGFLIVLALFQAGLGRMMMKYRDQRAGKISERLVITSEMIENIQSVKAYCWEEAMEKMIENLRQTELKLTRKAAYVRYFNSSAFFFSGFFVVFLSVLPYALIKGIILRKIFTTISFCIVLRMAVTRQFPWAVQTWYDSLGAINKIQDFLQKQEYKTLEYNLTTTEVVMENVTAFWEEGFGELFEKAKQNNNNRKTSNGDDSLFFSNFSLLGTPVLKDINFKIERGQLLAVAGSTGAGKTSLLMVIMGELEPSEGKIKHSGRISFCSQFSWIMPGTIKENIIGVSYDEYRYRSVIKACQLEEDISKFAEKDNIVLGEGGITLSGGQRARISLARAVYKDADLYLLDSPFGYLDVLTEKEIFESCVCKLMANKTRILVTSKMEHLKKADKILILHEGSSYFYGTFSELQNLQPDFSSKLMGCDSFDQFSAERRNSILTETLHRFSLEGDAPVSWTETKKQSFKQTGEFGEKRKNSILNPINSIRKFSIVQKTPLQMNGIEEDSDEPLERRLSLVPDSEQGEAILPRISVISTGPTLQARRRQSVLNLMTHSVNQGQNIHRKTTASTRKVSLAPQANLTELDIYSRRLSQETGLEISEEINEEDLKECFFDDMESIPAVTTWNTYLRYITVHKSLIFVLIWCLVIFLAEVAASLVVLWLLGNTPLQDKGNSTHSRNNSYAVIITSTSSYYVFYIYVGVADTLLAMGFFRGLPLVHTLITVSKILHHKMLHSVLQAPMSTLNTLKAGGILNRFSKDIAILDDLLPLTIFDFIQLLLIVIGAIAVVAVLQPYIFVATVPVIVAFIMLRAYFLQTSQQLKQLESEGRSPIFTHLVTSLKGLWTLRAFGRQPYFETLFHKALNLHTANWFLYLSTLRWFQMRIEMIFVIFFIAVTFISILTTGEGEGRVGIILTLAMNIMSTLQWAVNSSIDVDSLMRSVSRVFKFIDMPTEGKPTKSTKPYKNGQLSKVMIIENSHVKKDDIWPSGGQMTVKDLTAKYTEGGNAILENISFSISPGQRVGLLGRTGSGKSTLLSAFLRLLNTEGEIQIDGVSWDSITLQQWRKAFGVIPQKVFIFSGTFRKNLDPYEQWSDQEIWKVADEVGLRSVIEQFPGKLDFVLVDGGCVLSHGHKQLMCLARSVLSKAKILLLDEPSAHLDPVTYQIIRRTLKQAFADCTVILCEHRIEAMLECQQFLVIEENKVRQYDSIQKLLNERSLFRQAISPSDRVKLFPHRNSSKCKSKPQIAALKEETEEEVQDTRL

Row | Compound | Nauc @ 3 μM | Nauc @ 10 μM
1 | C[C@]1(F)CC2C3C(=O)N(c4cc(Cl)cc(Cl)c4)C(=O)C3C3(C(=O)Nc4c(Cl)cc(Cl)cc43)N2C1 (single isomer, unassigned) [Example 249] | ++ (NAUC “++” refers to an observed NAUC 170-140% of positive control) | + (NAUC “+” refers to an observed NAUC <140% of positive control)
2 | O=C1C2C3CCCN3C3(C(=O)Nc4c(Cl)cc(Cl)cc43)C2C(=O)N1c1cc(Cl)c(OC(F)F)c(Cl)c1 (single isomer, unassigned) [Example 250] | +++ (NAUC “+++” refers to an observed NAUC >170% of positive control) | +++ (NAUC “+++” refers to an observed NAUC >170% of positive control)
3 | COc1cc(Cl)cc(N2C(=O)C3C4C[C@](C)(F)CN4C4(C(=O)Nc5c(Cl)cc(Cl)cc54)C3C2=O)c1 (single isomer, unassigned) [Example 254] | +++ (NAUC “+++” refers to an observed NAUC >170% of positive control) | +++ (NAUC “+++” refers to an observed NAUC >170% of positive control)
4 | CC1(C)CC2C3C(=O)N(c4cc(Cl)c(OC(F)F)c(Cl)c4)C(=O)C3C3(C(=O)Nc4c(Cl)cc(Cl)cc43)N2C1 (single isomer, unassigned) [Example 255] | +++ (NAUC “+++” refers to an observed NAUC >170% of positive control) | +++ (NAUC “+++” refers to an observed NAUC >170% of positive control)
5 | COc1cc(Cl)cc(N2C(=O)C3C4C[C@](C)(O)CN4C4(C(=O)Nc5c(Cl)cc(Cl)cc54)C3C2=O)c1 (single isomer, unassigned) [Example 256] | ++ (NAUC “++” refers to an observed NAUC 170-140% of positive control) | +++ (NAUC “+++” refers to an observed NAUC >170% of positive control)
6 | CCC(C)C1NC2(C(=O)Nc3c(Cl)cc(Cl)cc32)C2C(=O)N(c3cc(Cl)cc(OC)c3)C(=O)C12 (stereo not shown) [Example 7, 3′-(Sec-butyl)-5,7-dichloro-5′-(3-chloro-5-methoxyphenyl)-2′,3′,3a′,6a′-tetrahydro-4′H-spiro[indoline-3,1′-pyrrolo[3,4-c]pyrrole]-2,4′,6′(5′H)-trione] | ++ (NAUC “++” refers to an observed NAUC 170-140% of positive control) | ++ (NAUC “++” refers to an observed NAUC 170-140% of positive control)
7 | C[C@]1(O)CC2C3C(=O)N(c4nnn[nH]4)C(=O)C3C3(C(=O)Nc4c(Cl)cc(Cl)cc43)N2C1 (stereo partly drawn) [Example 8, (7′S)-5,7-Dichloro-7′-hydroxy-7′-methyl-2′-(1H-tetrazol-5-yl)-3a′,6′,7′,8′,8a′,8b′-hexahydro-1′H-spiro[indoline-3,4′-pyrrolo[3,4-a]pyrrolizine]-1′,2,3′(2′H)-trione] | +++ (NAUC “+++” refers to an observed NAUC >170% of positive control) | + (NAUC “+” refers to an observed NAUC <140% of positive control)
8 | O=C1C2C(C(=O)N1c1cc(Cl)cc(Cl)c1)C(c1ccc(F)nc1)N1CCCC21 (stereo not shown) [Example 9, 2-(3,5-Dichlorophenyl)-4-(6-fluoropyridin-3-yl)hexahydropyrrolo[3,4-a]pyrrolizine-1,3(2H,4H)-dione] | + (NAUC “+” refers to an observed NAUC <140% of positive control) | ++ (NAUC “++” refers to an observed NAUC 170-140% of positive control)
9 | C[C@]1(F)CC2C3C(=O)N(c4cc(Cl)cc(Cl)c4)C(=O)C3C3(C(=O)Nc4c(Cl)cc(Cl)cc43)N2C1 (stereo partly drawn) [Example 10, (7′S)-5,7-dichloro-2′-(3,5-dichlorophenyl)-7′-fluoro-7′-methyl-3a′,6′,7′,8′,8a′,8b′-hexahydro-1′H-spiro[indoline-3,4′-pyrrolo[3,4-a]pyrrolizine]-1′,2,3′(2′H)-trione] | +++ (NAUC “+++” refers to an observed NAUC >170% of positive control) | +++ (NAUC “+++” refers to an observed NAUC >170% of positive control)
10 | O=C1C2C3CCCN3C3(C(=O)Nc4c(Cl)cc(Cl)cc43)C2C(=O)N1c1cccc(Cl)c1 (stereo not shown) [Example 11] | + (NAUC “+” refers to an observed NAUC <140% of positive control) | +++ (NAUC “+++” refers to an observed NAUC >170% of positive control)
11 | Cc1cccc2c1NC(=O)C21C2C(=O)N(c3cc(Cl)cc(Cl)c3)C(=O)C2C2CCCN21 (stereo not shown) [Example 12] | + (NAUC “+” refers to an observed NAUC <140% of positive control) | ++ (NAUC “++” refers to an observed NAUC 170-140% of positive control)
12 | N#Cc1cccc(N2C(=O)C3C4CCCN4C4(C(=O)Nc5c(Cl)cc(Cl)cc54)C3C2=O)c1 (stereo not shown) [Example 14] | + (NAUC “+” refers to an observed NAUC <140% of positive control) | ++ (NAUC “++” refers to an observed NAUC 170-140% of positive control)
13 | O=C1C2C3CCCN3C3(C(=O)Nc4c(Cl)cc(Cl)cc43)C2C(=O)N1c1cccc(C(F)(F)F)c1 (stereo not shown) [Example 15] | ++ (NAUC “++” refers to an observed NAUC 170-140% of positive control) | +++ (NAUC “+++” refers to an observed NAUC >170% of positive control)
14 | O=C1C2C3CCCN3C3(C(=O)Nc4c(Cl)cc(Cl)cc43)C2C(=O)N1c1cc(C(F)(F)F)cc(C(F)(F)F)c1 (stereo not shown) [Example 16] | +++ (NAUC “+++” refers to an observed NAUC >170% of positive control) | +++ (NAUC “+++” refers to an observed NAUC >170% of positive control)
15 | CC(C)C1NC2(C(=O)Nc3c(Cl)cc(Cl)cc32)C2C(=O)N(c3cc(Cl)cc(Cl)c3)C(=O)C12 (stereo not shown) [Example 17] | + (NAUC “+” refers to an observed NAUC <140% of positive control) | ++ (NAUC “++” refers to an observed NAUC 170-140% of positive control)
16 | O=C1C2C3CCCN3C3(C(=O)Nc4c(C(F)(F)F)cccc43)C2C(=O)N1c1cc(Cl)cc(Cl)c1 (stereo not shown) [Example 18] | ++ (NAUC “++” refers to an observed NAUC 170-140% of positive control) | + (NAUC “+” refers to an observed NAUC <140% of positive control)
17 | NC(=O)c1cccc(N2C(=O)C3C4CCCN4C4(C(=O)Nc5c(Cl)cc(Cl)cc54)C3C2=O)c1 (stereo not shown) [Example 19] | + (NAUC “+” refers to an observed NAUC <140% of positive control) | ++ (NAUC “++” refers to an observed NAUC 170-140% of positive control)
18 | O=C1C2C3CCCN3C3(C(=O)Nc4c(Cl)cc(Cl)cc43)C2C(=O)N1c1cncc(Cl)c1 (stereo not shown) [Example 20] | + (NAUC “+” refers to an observed NAUC <140% of positive control) | ++ (NAUC “++” refers to an observed NAUC 170-140% of positive control)
19 | O=C1C2C3CCCN3C3(C(=O)Nc4c(Cl)cc(Cl)cc43)C2C(=O)N1c1cc(F)cc(F)c1 (stereo not shown) [Example 21] | ++ (NAUC “++” refers to an observed NAUC 170-140% of positive control) | ++ (NAUC “++” refers to an observed NAUC 170-140% of positive control)
20 | O=C1C2C3c4ccccc4CN3C3(C(=O)Nc4c(Cl)cc(Cl)cc43)C2C(=O)N1c1cc(Cl)cc(Cl)c1 (stereo not shown) [Example 22] | +++ (NAUC “+++” refers to an observed NAUC >170% of positive control) | +++ (NAUC “+++” refers to an observed NAUC >170% of positive control)
